According to ChEMBL document CHEMBL4665624, “Synthesis of 5-(4-(1H-phenanthro[9,10-d]imidazol-2-yl)benzylidene)thiazolidine-2,4-dione as promising DNA and serum albumin-binding agents and evaluation of antitumor activity” (Eur J Med Chem, 2019):

What was measured:
[1] = tested on: UACC-62; assay: Antitumor activity against human UACC-62 cells assessed as cell growth inhibition at 10 uM incubated for 48 hrs by sulforhodamine B assay; type: functional; settings: read-out: GI
[2] = tested on: NCI-H460; assay: Antitumor activity against human NCI-H460 assessed as cell growth inhibition at 10 uM incubated for 48 hrs by sulforhodamine B assay; type: functional; settings: read-out: GI
[3] = tested on: Hs-578T; assay: Antitumor activity against human HS 578T cells assessed as cell growth inhibition at 10 uM incubated for 48 hrs by sulforhodamine B assay; type: functional; settings: read-out: GI
[4] = tested on: U-251; assay: Antitumor activity against human U251 cells assessed as cell growth inhibition at 10 uM incubated for 48 hrs by sulforhodamine B assay; type: functional; settings: read-out: GI
[5] = tested on: SN12C; assay: Antitumor activity against human SN12C cells assessed as cell growth inhibition at 10 uM incubated for 48 hrs by sulforhodamine B assay; type: functional; settings: read-out: GI
[6] = tested on: SF-268; assay: Antitumor activity against human SF268 cells assessed as cell growth inhibition at 10 uM incubated for 48 hrs by sulforhodamine B assay; type: functional; settings: read-out: GI
[7] = tested on: IGROV-1; assay: Antitumor activity against human IGROV1 cells assessed as cell growth inhibition at 10 uM incubated for 48 hrs by sulforhodamine B assay; type: functional; settings: read-out: GI
[8] = tested on: MDA-MB-468; assay: Antitumor activity against human MDA-MB-468 cells assessed as cell growth inhibition at 10 uM incubated for 48 hrs by sulforhodamine B assay; type: functional; settings: read-out: GI
[9] = tested on: 786-0; assay: Antitumor activity against human 786-0 cells assessed as cell growth inhibition at 10 uM incubated for 48 hrs by sulforhodamine B assay; type: functional; settings: read-out: GI
[10] = tested on: Malme-3M; assay: Antitumor activity against human MALME-3M cells assessed as cell growth inhibition at 10 uM incubated for 48 hrs by sulforhodamine B assay; type: functional; settings: read-out: GI
[11] = tested on: A498; assay: Antitumor activity against human A498 cells assessed as cell growth inhibition at 10 uM incubated for 48 hrs by sulforhodamine B assay; type: functional; settings: read-out: GI
[12] = tested on: CCRF-CEM; assay: Antitumor activity against human CCRF-CEM cells assessed as cell growth inhibition at 10 uM incubated for 48 hrs by sulforhodamine B assay; type: functional; settings: read-out: GI
[13] = tested on: MCF7; assay: Antitumor activity against human MCF7 cells assessed as cell growth inhibition at 10 uM incubated for 48 hrs by sulforhodamine B assay; type: functional; settings: read-out: GI
[14] = tested on: RXF 393; assay: Antitumor activity against human RXF 393 cells assessed as cell growth inhibition at 10 uM incubated for 48 hrs by sulforhodamine B assay; type: functional; settings: read-out: GI
[15] = tested on: HT-29; assay: Antitumor activity against human HT-29 cells assessed as cell growth inhibition at 10 uM incubated for 48 hrs by sulforhodamine B assay; type: functional; settings: read-out: GI
[16] = tested on: MDA-MB-435; assay: Antitumor activity against human MDA-MB-435 cells assessed as cell growth inhibition at 10 uM incubated for 48 hrs by sulforhodamine B assay; type: functional; settings: read-out: GI
[17] = tested on: SW-620; assay: Antitumor activity against human SW620 cells assessed as cell growth inhibition at 10 uM incubated for 48 hrs by sulforhodamine B assay; settings: SW-620, 48 h, read-out: GI
[18] = tested on: HCC 2998; assay: Antitumor activity against human HCC2998 cells assessed as cell growth inhibition at 10 uM incubated for 48 hrs by sulforhodamine B assay; type: functional; settings: read-out: GI
[19] = tested on: RPMI-8226; assay: Antitumor activity against human RPMI8226 cells assessed as cell growth inhibition at 10 uM incubated for 48 hrs by sulforhodamine B assay; type: functional; settings: read-out: GI
[20] = tested on: NCI-H226; assay: Antitumor activity against human NCI-H226 assessed as cell growth inhibition at 10 uM incubated for 48 hrs by sulforhodamine B assay; type: functional; settings: read-out: GI
[21] = tested on: OVCAR-4; assay: Antitumor activity against human OVCAR-4 cells assessed as cell growth inhibition at 10 uM incubated for 48 hrs by sulforhodamine B assay; type: functional; settings: read-out: GI
[22] = tested on: PC-3; assay: Antitumor activity against human PC-3 cells assessed as cell growth inhibition at 10 uM incubated for 48 hrs by sulforhodamine B assay; type: functional; settings: read-out: GI
[23] = tested on: HCT-15; assay: Antitumor activity against human HCT15 cells assessed as cell growth inhibition at 10 uM incubated for 48 hrs by sulforhodamine B assay; type: functional; settings: read-out: GI
[24] = tested on: EKVX; assay: Antitumor activity against human EKVX cells assessed as cell growth inhibition at 10 uM incubated for 48 hrs by sulforhodamine B assay; type: functional; settings: read-out: GI
[25] = tested on: SF-295; assay: Antitumor activity against human SF295 cells assessed as cell growth inhibition at 10 uM incubated for 48 hrs by sulforhodamine B assay; type: functional; settings: read-out: GI
[26] = tested on: HL-60(TB); assay: Antitumor activity against human HL-60(TB) cells assessed as cell growth inhibition at 10 uM incubated for 48 hrs by sulforhodamine B assay; type: functional; settings: read-out: GI
[27] = tested on: KM12; assay: Antitumor activity against human KM12 cells assessed as cell growth inhibition at 10 uM incubated for 48 hrs by sulforhodamine B assay; type: functional; settings: read-out: GI
[28] = tested on: OVCAR-3; assay: Antitumor activity against human OVCAR-3 cells assessed as cell growth inhibition at 10 uM incubated for 48 hrs by sulforhodamine B assay; type: functional; settings: read-out: GI
[29] = tested on: SNB-75; assay: Antitumor activity against human SNB-75 cells assessed as cell growth inhibition at 10 uM incubated for 48 hrs by sulforhodamine B assay; type: functional; settings: read-out: GI
[30] = tested on: HOP-92; assay: Antitumor activity against human HOP92 cells assessed as cell growth inhibition at 10 uM incubated for 48 hrs by sulforhodamine B assay; type: functional; settings: read-out: GI
[31] = tested on: SNB-19; assay: Antitumor activity against human SNB-19 cells assessed as cell growth inhibition at 10 uM incubated for 48 hrs by sulforhodamine B assay; type: functional; settings: read-out: GI
[32] = tested on: HCT-116; assay: Antitumor activity against human HCT116 cells assessed as cell growth inhibition at 10 uM incubated for 48 hrs by sulforhodamine B assay; type: functional; settings: read-out: GI
[33] = tested on: SK-MEL-28; assay: Antitumor activity against human SK-MEL-28 cells assessed as cell growth inhibition at 10 uM incubated for 48 hrs by sulforhodamine B assay; type: functional; settings: read-out: GI
[34] = tested on: MDA-MB-231; assay: Antitumor activity against human MDA-MB-231/ATCC cells assessed as cell growth inhibition at 10 uM incubated for 48 hrs by sulforhodamine B assay; type: functional; settings: read-out: GI
[35] = tested on: UO-31; assay: Antitumor activity against human UO-31 cells assessed as cell growth inhibition at 10 uM incubated for 48 hrs by sulforhodamine B assay; type: functional; settings: read-out: GI
[36] = tested on: NCI-H23; assay: Antitumor activity against human NCI-H23 cells assessed as cell growth inhibition at 10 uM incubated for 48 hrs by sulforhodamine B assay; type: functional; settings: read-out: GI
[37] = tested on: NCI/ADR-RES; assay: Antitumor activity against human NCI/ADR-RES cells assessed as cell growth inhibition at 10 uM incubated for 48 hrs by sulforhodamine B assay; type: functional; settings: read-out: GI
[38] = tested on: SK-OV-3; assay: Antitumor activity against human SK-OV-3 cells assessed as cell growth inhibition at 10 uM incubated for 48 hrs by sulforhodamine B assay; type: functional; settings: read-out: GI
[39] = tested on: BT-549; assay: Antitumor activity against human BT-549 cells assessed as cell growth inhibition at 10 uM incubated for 48 hrs by sulforhodamine B assay; type: functional; settings: read-out: GI
[40] = tested on: MOLT-4; assay: Antitumor activity against human MOLT4 cells assessed as cell growth inhibition at 10 uM incubated for 48 hrs by sulforhodamine B assay; type: functional; settings: read-out: GI
[41] = tested on: NCI-H522; assay: Antitumor activity against human NCI-H522 cells assessed as cell growth inhibition at 10 uM incubated for 48 hrs by sulforhodamine B assay; type: functional; settings: read-out: GI
[42] = tested on: SR; assay: Antitumor activity against human SR cells assessed as cell growth inhibition at 10 uM incubated for 48 hrs by sulforhodamine B assay; type: functional; settings: read-out: GI
[43] = tested on: M14; assay: Antitumor activity against human M14 cells assessed as cell growth inhibition at 10 uM incubated for 48 hrs by sulforhodamine B assay; type: functional; settings: read-out: GI
[44] = tested on: K562; assay: Antitumor activity against human K562 cells assessed as cell growth inhibition at 10 uM incubated for 48 hrs by sulforhodamine B assay; type: functional; settings: read-out: GI
[45] = tested on: COLO 205; assay: Antitumor activity against human COLO205 cells assessed as cell growth inhibition at 10 uM incubated for 48 hrs by sulforhodamine B assay; type: functional; settings: read-out: GI
[46] = tested on: LOX IMVI; assay: Antitumor activity against human LOX IMVI cells assessed as cell growth inhibition at 10 uM incubated for 48 hrs by sulforhodamine B assay; type: functional; settings: read-out: GI
[47] = tested on: ACHN; assay: Antitumor activity against human ACHN cells assessed as cell growth inhibition at 10 uM incubated for 48 hrs by sulforhodamine B assay; type: functional; settings: read-out: GI
[48] = tested on: OVCAR-8; assay: Antitumor activity against human OVCAR-8 cells assessed as cell growth inhibition at 10 uM incubated for 48 hrs by sulforhodamine B assay; type: functional; settings: read-out: GI

Measured: inhibition of growth at 10 µM

O=C1c2ccccc2C(=O)c2c1ccc1[nH]c(-c3ccc(-c4nc5c6ccccc6c6ccccc6c5[nH]4)cc3)nc21
89%: [21]
12.4%: [40]
14.4%: [34]
10%: [29]
11.4%: [42]
22.6%: [35]
10.4%: [19]
10.3%: [24]
< 10%: all other assays above

c1cc2ccc3ccc(-c4nc5c6ccccc6c6ccccc6c5[nH]4)c4ccc(c1)c2c34
38.4%: [1]
27.1%: [30]
14.6%: [6]
37.2%: [35]
13.7%: [46]
23.1%: [13]
13.5%: [27]
16.6%: [32]
21.2%: [22]
78.1%: [8]
76.2%: [20]
26.8%: [40]
13.2%: [7]
23.7%: [42]
17.5%: [41]
36.3%: [11]
10.6%: [19]
10.3%: [12] | [47]
23.2%: [34]
< 10%: all other assays above
